Our source for the IC50 and melting point values is US7265125B2, “Neuropeptide Y antagonists” (Hoffmann-La Roche Inc., priority 2000, dated 2007).

The target of data set [1] is T1, mouse NPY5-receptor (mNPY5) (Mus musculus, UniProt O70342).
T1 construct: The full-length cDNA encoding the mouse NPY5 (mNPY5) receptor was amplified from mouse brain cDNA; expressed in transfected cells; membrane preparation
T1 sequence (O70342 1-466): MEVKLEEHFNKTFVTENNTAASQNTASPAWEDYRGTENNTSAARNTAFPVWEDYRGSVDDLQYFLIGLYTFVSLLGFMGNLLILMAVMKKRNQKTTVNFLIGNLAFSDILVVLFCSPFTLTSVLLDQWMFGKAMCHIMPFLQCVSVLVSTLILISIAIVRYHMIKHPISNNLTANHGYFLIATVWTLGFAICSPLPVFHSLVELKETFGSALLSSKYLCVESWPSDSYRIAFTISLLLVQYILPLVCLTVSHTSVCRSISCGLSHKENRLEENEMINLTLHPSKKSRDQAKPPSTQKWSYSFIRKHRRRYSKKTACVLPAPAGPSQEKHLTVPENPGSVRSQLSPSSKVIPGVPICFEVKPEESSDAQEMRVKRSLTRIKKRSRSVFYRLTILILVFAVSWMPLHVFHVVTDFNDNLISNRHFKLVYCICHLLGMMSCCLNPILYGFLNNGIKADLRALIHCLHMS
The data set can be described thus: Radioligand competition binding. The note with it: HEK293 membranes expressing recombinant mNPY5; 100 pM [125I]labelled peptide YY; 1 h at 22° C. The source says:
The full-length cDNA encoding the mouse NPY5 (mNPY5) receptor was amplified from mouse brain cDNA using specific primers, designed based on the published sequence, and Pfu DNA-Polymerase (Stratagene). The amplification product was subcloned into the mammalian expression vector pcDNA3 using Eco RI and XhoI restriction sites. Positive clones were sequenced and one clone, encoding the published sequence was selected for generation of stable cell clones.
Human embryonic kidney 293 (HEK293) cells were transfected with 10 μg mNPY5 DNA using the lipofectamine reagent (Gibco BRL) according to the manufacturer's instruction. Two days after transfection, geneticin selection (1 mg/ml) was initiated and several stable clones were isolated. One clone was further used for pharmacological characterization.
Human embryonic kidney 293 cells (HEK293), expressing recombinant mouse NPY5-receptor (mNPY5) were broken by three freeze/thawing cycles in hypotonic Tris buffer (5 mM, pH 7.4, 1 mM MgCl2), homogenized and centrifuged at 72,000×g for 15 min. The pellet was washed twice with 75 mM Tris buffer, pH 7.4, containing 25 mM MgCl2 and 250 mM sucrose, 0.1 mM phenylmethylsulfonylfluoride and 0.1 mM 1,10-pheneanthrolin, resuspended in the same buffer and stored in aliquots at −80° C. Protein was determined according to the method of Lowry using bovine serum albumine (BSA) as a standard. […]
On the technique in general: Displacement assays read how much labelled ligand stays bound in the presence of the test substance.

What is called IC50 is the concentration that gives 50% inhibition. In general, melting point refers to the temperature, or range, at which the solid turns liquid.

In the case of `COc1ccc(-c2ccc3c(N4CCCC4)cc(C)nc3c2)cc1` [Example 1.6, 7-(4-methoxy-phenyl)-2-methyl-4-pyrrolidin-1-yl-quinoline], the half-maximal inhibitory concentration (IC50) in data set [1] amounted to 60 nM.
`Cc1cc(N2CCCCC2)c2ccc(-c3cccs3)cc2n1` [Example 1.15, 2-methyl-4-piperidin-1-yl-7-thiophen-2-yl-quinoline] gave a melting point of 122 to 123 °C.
For the compound `Cc1cc(N2CCCCC2)c2ccc(-c3ccccc3)cc2n1` [Example 1.16, 2-methyl-7-phenyl-4-piperidin-1-yl-quinoline], the melting point is 111 to 112 °C.
For the compound `Cc1cc(N2CCCCC2)c2ccc(-c3ccc4[nH]ccc4c3)cc2n1` [Example 1.17, 7-(1H-Indol-5-yl)-2-methyl-4-piperidin-1-yl-quinoline], in data set [1], the IC50 was determined as 100 nM.
